This note sets out measurements from US10030016B2 (Sunesis Pharmaceuticals, Inc., priority 2009, dated 2018).

As a reminder, the IC50 is the concentration that inhibits the measured activity by half. Read a low IC50 as greater potency in that assay. As a reminder, the EC50 is the midpoint of the concentration-response curve.

The target of one assay is PDK1 (Homo sapiens (Human), UniProt O15530). As to the kind of experiment: PDK1 kinase assay (coupled PDK1/AKT/FAM-crosstide assay, IMAP fluorescence polarization). Format: biochemical. In a few lines: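 GST-tagged PDK1 (aa 51-359, 0.75 nM) was coupled to unphosphorylated GST-AKT2 140-467-PIFtide (10 nM) and 100 nM FAM-crosstide at 40 μM ATP, in Tris pH 7.2 buffer, for 30 min at 25 °C. Crosstide phosphorylation was read by IMAP fluorescence polarization (ΔmP) and fitted with a 4-parameter curve.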
Sequence of PDK1 (O15530 51-359): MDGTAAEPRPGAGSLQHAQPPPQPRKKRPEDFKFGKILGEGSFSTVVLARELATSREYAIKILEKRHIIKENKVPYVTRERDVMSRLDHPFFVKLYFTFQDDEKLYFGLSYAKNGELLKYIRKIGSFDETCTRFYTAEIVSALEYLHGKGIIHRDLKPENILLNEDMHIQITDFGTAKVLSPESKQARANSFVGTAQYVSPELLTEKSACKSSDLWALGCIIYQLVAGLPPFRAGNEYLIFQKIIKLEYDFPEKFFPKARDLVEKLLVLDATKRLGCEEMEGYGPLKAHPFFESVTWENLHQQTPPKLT
Background: Polarisation of emitted light reports the rotation of a fluorescent probe.

The subject of assay [1] is phospho-akt (Thr308) in PC-3 cells. Put plainly: Inhibition of phospho-akt (Thr308) in PC-3 cells, MSD phospho-akt 308 ELISA kit. As to conditions: Homo sapiens, 2 hours, no serum, read-out: EC50. Format: cell-based. In a few lines: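 PC-3 cells (15,000/well, overnight in 10% FBS medium) treated 2 h with three-fold diluted compounds in serum-free medium; DMSO high and 5 μM wortmannin low controls. Lysates captured on BSA-blocked MSD plates overnight at 4 °C, then 1 h antibody detection at RT; phospho-Akt Thr308 read by MSD electrochemiluminescence.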
Background: In an ELISA, binding on a coated surface is turned into a signal by an enzyme label.

The mark [2] stands for this setting: inhibition of phospo-PDK1 in vitro.
[3] abbreviates: inhibition of P308 Akt in PC-3 cells, MSD.
Setting [4] is: inhibition of P308 Akt in PC-3 cells using MSD.
Setting [5] is: PC-3, 2 h, inhibition of P308 Akt in PC-3 cells, MSD.

Counter-ions that a name gives are not always drawn. Like-named read-outs stand apart in the source and are kept apart here.

Turning to `NCCNS(=O)(=O)c1cnc(NCc2ccc(-c3ccc4ncnc(N)c4c3)s2)c(C(=O)NCc2ccc(F)c(F)c2)c1` [Example 8.6.13, 5-(N-(2-aminoethyl)sulfamoyl)-2-(((5-(4-aminoquinazolin-6-yl)thiophen-2-yl)methyl)amino)-N-(3,4-difluorobenzyl) nicotinamide], on PDK1 (setting [2]), the half-inhibitory concentration (IC50) lay in the range of 1 to 5 µM. The half-maximal effective concentration (EC50) in assay [1] (setting [3]) was greater than 10 µM.
`Nc1ncnn2ccc(-c3ccc(CNc4ncc(C(F)(F)F)cc4C(=O)NCc4ccc(F)c(F)c4)cc3)c12` [Example 176, 2-[4-(4-Amino-pyrrolo [2,1-f][1,2,4]triazin-5-yl)-benzylamino]-N-(3,4-difluoro-benzyl)-5-trifluoromethyl-nicotinamide] showed a 50% inhibitory concentration (IC50) against PDK1 (inhibition of PDK1 in vitro) of less than 0.1 µM. Moreover, in assay [1] (setting [4]), the EC50 lay in the range of 1 to 10 µM.
As to `Nc1ncnc2ccc(-c3ccc(CNc4ncccc4C(=O)NC4CCCCCC4)s3)cc12` [Example 3.30, 2-({[5-(4-aminoquinazolin-6-yl)thiophen-2-yl]methyl}amino)-N-cycloheptylpyridine-3-carboxamide (TFA salt)], the half-maximal inhibitory concentration (IC50) against PDK1 (setting [2]) is greater than 5 µM. The EC50 in assay [1] (setting [3]) was greater than 10 µM.
At PDK1 (inhibition of PDK1 in vitro), `Cc1cc(CNc2ncc(C#N)cc2C(=O)N[C@@H](C)c2ccc(F)cc2)ccc1-c1cnc2[nH]nc(N)c2c1` [Example 408, 2-[4-(3-Amino-1H-pyrazolo [3,4-b]pyridin-5-yl)-3-methyl-benzylamino]-5-cyano-N-[(S)-1-(4-fluoro-phenyl)-ethyl]-nicotinamide] gave a half-maximal inhibitory concentration (IC50) of less than 0.1 µM. Further, the concentration for a half-maximal effect (EC50) in assay [1] (setting [4]) lay within 1 to 10 µM.
`NCCCc1nc(-c2ccc(CNc3ncc(C(F)(F)F)cc3C(=O)Nc3ccc(F)cc3)cc2)cnc1N` [Example 73, 2-{4-[5-Amino-6-(3-amino-propyl)-pyrazin-2-yl]-benzyl-amino}-N-(4-fluoro-phenyl)-5-trifluoromethyl-nicotinamide] returned an IC50 on PDK1 (inhibition of PDK1 in vitro) of less than 0.1 µM. Also, the 50% effective concentration (EC50) in assay [1] (setting [4]) is less than 1 µM.
For the compound `Nc1ncnc2[nH]cc(-c3ccc(CNc4ncc(C(F)(F)F)cc4C(=O)Nc4ccc(F)cc4)cc3)c12` [Example 321, 2-(4-(4-amino-7H-pyrrolo [2,3-d]pyrimidin-5-yl)benzylamino)-N-(4-fluorophenyl)-5-(trifluoromethyl)nicotinamide], on PDK1 (inhibition of PDK1 in vitro), the IC50 was less than 0.1 µM. For the same compound, the EC50 in assay [1] (setting [4]) was less than 1 µM.
The compound `Cc1ncc(CNC(=O)c2cccnc2NCc2ccc(-c3ccc4ncnc(N)c4c3)s2)cc1F` [Example 3.67, 2-(((5-(4-aminoquinazolin-6-yl)thiophen-2-yl)methyl)amino)-N-((5-fluoro-6-methylpyridin-3-yl)methyl)nicotinamide (TFA salt)] registered a half-maximal inhibitory concentration (IC50) against PDK1 (setting [2]) of 1 to 5 µM. Moreover, the EC50 in assay [1] (setting [5]) was greater than 10 µM.
Turning to `O=C1Nc2cc(/C=C/CNc3ncccc3C(=O)NCc3ccc(F)c(F)c3)ccc2/C1=C/c1ncc[nH]1` [Example 15.12, N-(3,4-Difluoro-benzyl)-2-((E)-3-{3-[1-(1H-imidazol-2-yl)-meth-(Z)-ylidene]-2-oxo-2,3-dihydro-1H-indol-6-yl}-allylamino)-nicotinamide], the 50% inhibitory concentration (IC50) against PDK1 (setting [2]) is less than 0.1 µM. Also, the EC50 in assay [1] (setting [3]) lay in the range of 1 to 10 µM.
`N#Cc1ccc(NC(=O)c2cc(C(F)(F)F)cnc2NCc2ccc(-c3cnc4[nH]nc(N)c4c3)cc2)cc1` [Example 300, 2-(4-(3-amino-1H-pyrazolo [3,4-b]pyridin-5-yl)benzylamino)-N-(4-cyanophenyl)-5-(trifluoromethyl)nicotinamide] returned an IC50 against PDK1 (inhibition of PDK1 in vitro) of less than 0.1 µM. For the same compound, the half-maximal effective concentration (EC50) in assay [1] (setting [4]) is less than 1 µM.
In turn, `Nc1ncnc2ccc(-c3csc(Nc4ncccc4C(=O)NCc4ccc(F)c(F)c4)n3)cc12` [Ex. 13, 2-(4-(4-aminoquinazolin-6-yl)thiazol-2-ylamino)-N-(3,4-difluorobenzyl)-nicotinamide] returned an IC50 against PDK1 (setting [2]) of 1 to 5 µM. The EC50 in assay [1] (setting [3]) is greater than 10 µM.
In turn, `CN(C)CCCNC(=O)c1cnc(NCc2ccc(-c3ccc4ncnc(N)c4c3)s2)c(C(=O)NCc2ccc(F)c(F)c2)c1` [Example 7.24.5, 2-({[5-(4-aminoquinazolin-6-yl)thiophen-2-yl]methyl}amino)-N^3-(3,4-difluorobenzyl)-N^5-[3-(dimethylamino)propyl] pyridine-3,5-dicarboxamide] yielded an IC50 against PDK1 (setting [2]) of 0.1 to 1 µM. In addition, in assay [1] (setting [3]), the EC50 was greater than 10 µM.
On PDK1 (setting [2]), `Nc1ncnc2ccc(-c3ccc(CNc4ncccc4C(=O)NCc4cc(F)ccc4F)s3)cc12` [Example 3.6, 2-({[5-(4-aminoquinazolin-6-yl)thiophen-2-yl]methyl}amino)-N-(2,5-difluorobenzyl)pyridine-3-carboxamide] yielded a concentration for half-maximal inhibition (IC50) of 0.1 to 1 µM. For the same compound, in assay [1] (setting [3]), the EC50 was greater than 10 µM.
The corresponding values for `C[C@H](NC(=O)c1cccnc1NCc1ccc(-c2ccc3ncc4[nH]c(=O)n(C)c4c3c2)s1)c1ccc(F)cc1` [Example 2.16, (S)-N-(1-(4-fluorophenyl)ethyl)-2-(((5-(1-methyl-2-oxo-2,3-dihydro-1H-imidazo[4,5-c]quinolin-8-yl)thiophen-2-yl)methyl)amino) nicotinamide] are greater than 5 µM and greater than 10 µM.
On to `O=C(NCc1ccc(F)cc1)c1cccnc1NCc1ccc(-c2cnc3[nH]ncc3c2)cc1` [Example 393, 2-(4-(1H-pyrazolo[3,4-b]pyridin-5-yl)benzylamino)-N-(4-fluorobenzyl) nicotinamide], for which, at PDK1 (inhibition of PDK1 in vitro), the IC50 is less than 0.1 µM. In addition, in assay [1] (setting [4]), the half-maximal effective concentration (EC50) lay in the range of 1 to 10 µM.
`C[C@H](NC(=O)c1cccnc1NCc1ccc(-c2ccc3ncc(N(C)C)nc3c2)s1)c1ccc(F)c(F)c1` [Example 4.27, (S)-N-(1-(3,4-difluoro-phenyl)ethyl)-2-(((5-(3-(dimethylamino)quinoxalin-6-yl)thiophen-2-yl)methyl)amino)nicotinamide] came in with an IC50 at PDK1 (setting [2]) of 1 to 5 µM. Besides, the concentration for a half-maximal effect (EC50) in assay [1] (setting [3]) is greater than 10 µM.
Compound `C[C@H](NC(=O)c1nccnc1NCc1ccc(-c2cc3c(N)ncnc3cn2)s1)c1ccc(F)cc1` [Example 3.79, 3-({[5-(4-aminopyrido[3,4-d]pyrimidin-6-yl)thiophen-2-yl]methyl}amino)-N-[(1S)-1-(4-fluorophenyl)ethyl] pyrazine-2-carboxamide (TFA salt)] yielded a half-inhibitory concentration (IC50) against PDK1 (setting [2]) of 0.1 to 1 µM. In assay [1] (setting [5]), the EC50 was less than 1 µM.
In the case of `CC(C)(O)Cn1cc(-c2ccc(CNc3ncc(C(F)(F)F)cc3C(=O)Nc3ccc(F)cc3)cc2)c2c(N)ncnc21` [Example 405, 2-(4-(4-amino-7-(2-hydroxy-2-methylpropyl)-7H-pyrrolo[2,3-d]pyrimidin-5-yl)benzylamino)-N-(4-fluorophenyl)-5-(trifluoromethyl)nicotinamide], on PDK1 (inhibition of PDK1 in vitro), the IC50 is less than 0.1 µM. Also, the 50% effective concentration (EC50) in assay [1] (setting [4]) is 1 to 10 µM.
The compound `CNCCCc1nc(-c2ccc(CNc3ncc(C#N)cc3C(=O)N[C@@H](C)c3ccc(F)cc3)cc2)cnc1N` [Example 93, 2-{4-[5-Amino-6-(3-methylamino-propyl)-pyrazin-2-yl]-benzyl-amino}-5-cyano-N-[(S)-1-(4-fluoro-phenyl)-ethyl]-nicotinamide] displayed a half-inhibitory concentration (IC50) at PDK1 (inhibition of PDK1 in vitro) of less than 0.1 µM. Further, in assay [1] (setting [4]), the EC50 was less than 1 µM.
In the case of `N#Cc1cnc(NCc2ccc(-c3cnc4[nH]nc(N)c4c3)cc2)c(C(=O)NCc2ccc(F)c(F)c2)n1` [Example 31, 3-(4-(3-amino-1H-pyrazolo[3,4-b]pyridin-5-yl)benzylamino)-6-cyano-N-(3,4-difluorobenzyl) pyrazine-2-carboxamide], at PDK1 (setting [2]), the IC50 is less than 0.1 µM. Also, the concentration for a half-maximal effect (EC50) in assay [1] (setting [3]) is less than 1 µM.
